The experiment has as its system SMART-CAR_MTH1-WT (Jurkat.2 cells). Put plainly: HTFC Assay (HTFC DC50). Format: cell-based, human. Particulars: Jurkat.2 (SMART-CAR_MTH1-WT) cells, 4 hours at 37° C., FITC anti-HA staining, flow cytometry. As to the method: FITC anti-HA.11 epitope tag antibody (Biolegend #901507) FITC Mouse IgG1 k isotope control antibody (Biolegend #400108)
Dry dispense 10 nL/well of compound+90 […] into 96-well V-bottom plates: 4 compounds/plate in 11-point dose response in biological duplicates. Column 12 as DMSO controls.
• 1. Plate Jurkat.2 (SMART-CAR_MTH1-WT) cells with Combi on top of dry dispensed compound: 500,000 cells/mL, 100 uL/well • 2. Incubate for 4 hours at 37° C. • 3. Fixation, permeabilization, and staining: • a. Centrifuge at 1500 rpm for 7 minutes, remove supernatant. • b. Add 100 μl of Fixation/Permeabilization Solution, seal plates, vortex, pulse spin, and incubate at 4° C. for 30 minutes. • c. Centrifuge at 1500 rpm for 7 minutes, remove supernatant. • d. Dilute BD Perm/Wash Buffer to 1× with milliQ water. • e. Wash with 200 uL of BD Perm/Wash Buffer, seal plates, vortex. • f. Centrifuge at 1500 rpm for 7 minutes, remove supernatant. • g. Wash with 200 uL of BD Perm/Wash Buffer, seal plates, vortex. (Option to stop, store at 4° C. if needed) • h. Centrifuge at 1500 rpm for 7 minutes, remove supernatant. • i. Add 50 uL BD Perm/Wash Buffer containing 1:1000 of HA-FITC (Well A12:D12) or IgG-FITC (Well F12:H12) directly conjugated antibody, seal plates, vortex, pulse spin, and incubate at 4° C. for 1 hour. • j. Centrifuge at 1500 rpm for 7 minutes, remove supernatant. • k. Wash with 200 uL of BD Perm/Wash Buffer, seal plates, vortex. • 4. Centrifuge at 1500 rpm for 7 minutes, remove supernatant. • a. Resuspend in 200 ul of BD Perm/Wash Buffer. (Option to stop, store at 4° C. if needed)
• 1. Use analysis from template HTFC file. • 2. Export statistics by going to Tools>Group stats, save as a .csv file with the plate barcode as the name. • 3. Remove all columns from this file except for “Well”, “Sample ID”, “Date”, and “HA+.Mean.Y Mean for HA+ gated by P01.cells”. • 4. Create a New DB Analysis in Scinamic using the “HTFC-Cell Pharm” template. • 5. Load Incyte file “barcode”.csv. • 6. Load Echo file with the generated Echo report (P:\LabData\Echo\Project\SMARTCAR\Echo Report\Labcyte Echo Dose-Response) • 7. Edit Platemap.xlsx with the plate barcodes. • 8. Load Plate Map with this file. • 9. Cleanup compound Ids, mask control outliers, and assign curves.
Using the above assay the HTFC DC50 data was determined for the compounds in Table 2 below.
Example 6: HiBit and HTFC DC50 Data for Representative Compounds of the Present Invention
(In general: In flow cytometry, cells or beads pass a laser one at a time.)
Take `CNC(=O)c1cnc2ccc(C(=O)NCC(=O)N3CCN(C(=O)CNc4cccc5c4C(=O)N(C4CCC(=O)NC4=O)C5=O)CC3)cc2c1Nc1ccccc1` (centres unmarked) [Compound 348, 4-anilino-N6-[2-[4-[2-[[2-(2,6-dioxo-3-piperidyl)-1,3-dioxo-isoindolin-4-yl]amino]acetyl]piperazin-1-yl]-2-oxo-ethyl]-N3-methyl-quinoline-3,6-dicarboxamide]: the DC50 was < 100 nM. For `CNC(=O)c1cnc2ccc(-c3ccc(C(=O)NCCCCNC(=O)CNc4cccc5c4C(=O)N(C4CCC(=O)NC4=O)C5=O)c(F)c3)cc2c1Nc1ccccc1` (centres unmarked) [Compound 350, 4-anilino-6-[4-[4-[[2-[[2-(2,6-dioxo-3-piperidyl)-1,3-dioxo-isoindolin-4-yl]amino]acetyl]amino]butylcarbamoyl]-3-fluoro-phenyl]-N-methyl-quinoline-3-carboxamide] the value was < 100 nM.

Regarding `CNC(=O)c1cnc2ccc(-c3ccn(CCCCCCNC(=O)COc4cccc5c4C(=O)N(C4CCC(=O)NC4=O)C5=O)n3)cc2c1Nc1ccccc1` (centres unmarked) [Compound 361, 4-anilino-6-[1-[6-[[2-[2-(2,6-dioxo-3-piperidyl)-1,3-dioxo-isoindolin-4-yl]oxyacetyl]amino]hexyl]pyrazol-3-yl]-N-methyl-quinoline-3-carboxamide], the DC50 is < 100 nM. Under `CNC(=O)c1cnc2ccc(-c3ccc(C(=O)NCCCN4CCC(Nc5cccc6c5C(=O)N(C5CCC(=O)NC5=O)C6=O)CC4)cc3)cc2c1Nc1ccccc1` (centres unmarked) [Compound 366, 4-anilino-6-[4-[3-[4-[[2-(2,6-dioxo-3-piperidyl)-1,3-dioxo-isoindolin-4-yl]amino]-1-piperidyl]propylcarbamoyl]phenyl]-N-methyl-quinoline-3-carboxamide] stands < 100 nM; under `CNC(=O)c1cnc2cc(OC)c(-c3ccc(C(=O)NCCCCNC(=O)C(C)Nc4cccc5c4C(=O)N(C4CCC(=O)NC4=O)C5=O)c(F)c3)cc2c1Nc1ccccc1` (centres unmarked) [Compound 367, 6-(4-((4-(2-((2-(2,6-dioxopiperidin-3-yl)-1,3-dioxoisoindolin-4-yl)amino)propanamido)butyl)carbamoyl)-3-fluorophenyl)-7-methoxy-N-methyl-4-(phenylamino)quinoline-3-carboxamide], < 100 nM.

In the case of `CNC(=O)c1cnc2ccc(-c3ccc(OCCCCNC(=O)CNc4cccc5c4C(=O)N(C4CCC(=O)NC4=O)C5=O)nc3)cc2c1Nc1ccccc1` (centres unmarked) [Compound 369, 4-anilino-6-[6-[4-[[2-[[2-(2,6-dioxo-3-piperidyl)-1,3-dioxo-isoindolin-4-yl]amino]acetyl]amino]butoxy]-3-pyridyl]-N-methyl-quinoline-3-carboxamide], the DC50 was < 100 nM.

Take `CNC(=O)c1cnc2cc(OC)c(OCC3CCN(C(=O)CCCNC(=O)CNc4cccc5c4C(=O)N(C4CCC(=O)NC4=O)C5=O)CC3)cc2c1Nc1ccccc1` (centres unmarked) [Compound 370, 6-((1-(4-(2-((2-(2,6-dioxopiperidin-3-yl)-1,3-dioxoisoindolin-4-yl)amino)acetamido)butanoyl)piperidin-4-yl)methoxy)-7-methoxy-N-methyl-4-(phenylamino)quinoline-3-carboxamide]: the DC50 is < 100 nM.

Take `CNC(=O)c1cnc2cc(OC)c(OCC3CCN(CCCCNC(=O)CNc4cccc5c4C(=O)N(C4CCC(=O)NC4=O)C5=O)CC3)cc2c1Nc1ccccc1` (centres unmarked) [Compound 371, 6-((1-(4-(2-((2-(2,6-dioxopiperidin-3-yl)-1,3-dioxoisoindolin-4-yl)amino)acetamido)butyl)piperidin-4-yl)methoxy)-7-methoxy-N-methyl-4-(phenylamino)quinoline-3-carboxamide]: the DC50 is < 100 nM. With `COc1cc2ncc(C(=O)NC(C)(C)C)c(Nc3ccccc3)c2cc1-c1ccc(C(=O)NCCCCn2cc(CNc3cccc4c3C(=O)N(C3CCC(=O)NC3=O)C4=O)nn2)nc1` (centres unmarked) [Compound 373, N-(tert-butyl)-6-(6-((4-(4-(((2-(2,6-dioxopiperidin-3-yl)-1,3-dioxoisoindolin-4-yl)amino)methyl)-1H-1,2,3-triazol-1-yl)butyl)carbamoyl)pyridin-3-yl)-7-methoxy-4-(phenylamino)quinoline-3-carboxamide], the DC50 was < 100 nM. Under `CNC(=O)c1cnc2cc(OC)c(-c3cnc(C(=O)NCCCCn4cc(CNc5cccc6c5C(=O)N(C5CCC(=O)NC5=O)C6=O)nn4)cn3)cc2c1Nc1ccccc1` (centres unmarked) [Compound 380, 6-(5-((4-(4-(((2-(2,6-dioxopiperidin-3-yl)-1,3-dioxoisoindolin-4-yl)amino)methyl)-1H-1,2,3-triazol-1-yl)butyl)carbamoyl)pyrazin-2-yl)-7-methoxy-N-methyl-4-(phenylamino)quinoline-3-carboxamide] stands < 100 nM. For `CNC(=O)c1cnc2ccc(NCCCCCCCCCCNC(=O)COc3cccc4c3C(=O)N(C3CCC(=O)NC3=O)C4=O)cc2c1NC1CC1` (centres unmarked) [Compound 460, 4-(cyclopropylamino)-6-((10-(2-((2-(2,6-dioxopiperidin-3-yl)-1,3-dioxoisoindolin-4-yl)oxy)acetamido)decyl)amino)-N-methylquinoline-3-carboxamide] the value was < 100 nM.
